The source made the active and inactive calls.
Key:
[1] = blockers of HIV-1 envelope-mediated cell-cell fusion – cherry-pick, dose response (AID 652057); assay type: functional, cell-based
[2] = blockers of HIV-1 ZM109 envelope-driven cell-cell fusion – HeLa effector, CEM target cells, luciferase, cherry-pick, dose response (AID 652058); assay type: functional, cell-based;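 note: luciferase signal from HIV-1 Env mediated cell-cell fusion of effector and target cells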
[3] = off-target signal loss in HeLa-CEM21 co-culture – HeLa F-luc CTL cells, cherry-picked, counter-screen for HIV-1 Env fusion inhibitor project, dose response (AID 652040); assay type: functional, cell-based;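 note: potency for signal decrease marking cytotoxic or nonspecific inhibition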
[4] = HIV-1 AD8 envelope cell-cell fusion blockers – cherry-pick, dose response (AID 652062); assay type: functional, cell-based;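 note: luciferase signal from cell-cell fusion driven by HIV-1 clade B AD8 Env; potency is for inhibitors of fusion seen as a drop in luminescence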
[5] = inhibition of Env-driven cell fusion – HIV entry, plate reader, dry powder, dose response (AID 687023); assay type: functional, cell-based
[6] = viability loss in CEM21 cells – cell-based, plate reader, dry powder, cytotoxicity control, dose response (AID 687026); assay type: functional
[7] = Trypanosoma cruzi growth suppression in host cells – NIH3T3 host cells, beta-gal luminescence, confirmation (AID 2044); assay type: functional, cell-based;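 note: intracellular parasites grown in NIH/3T3 mouse fibroblasts as host cells; luminescent beta-galactosidase reporter signal from transgenic T. cruzi replicating inside host cells; inhibitors lower the luminescence signal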
[8] = NIH3T3 cell viability loss – ATP luminescence, mouse fibroblasts, counter-screen, dose response (AID 2010); assay type: functional, cell-based;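 note: cells exposed to compound for about 90 hours before reading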
[9] = biological target: T1, Oxysterols receptor LXR-beta (Homo sapiens, UniProt P55055); assay type: functional, cell-based;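 note: Cell-based luminescence dose-response assay of agonist activity at LXR, run as a confirmatory counterscreen to a daf-12 agonist screen; HEK293 cells with Gal4-LXR fusion and GAL4-driven luciferase reporter; agonist potency from rising luciferase signal of a Gal4-LXR reporter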
T1 sequence (P55055 whole entry): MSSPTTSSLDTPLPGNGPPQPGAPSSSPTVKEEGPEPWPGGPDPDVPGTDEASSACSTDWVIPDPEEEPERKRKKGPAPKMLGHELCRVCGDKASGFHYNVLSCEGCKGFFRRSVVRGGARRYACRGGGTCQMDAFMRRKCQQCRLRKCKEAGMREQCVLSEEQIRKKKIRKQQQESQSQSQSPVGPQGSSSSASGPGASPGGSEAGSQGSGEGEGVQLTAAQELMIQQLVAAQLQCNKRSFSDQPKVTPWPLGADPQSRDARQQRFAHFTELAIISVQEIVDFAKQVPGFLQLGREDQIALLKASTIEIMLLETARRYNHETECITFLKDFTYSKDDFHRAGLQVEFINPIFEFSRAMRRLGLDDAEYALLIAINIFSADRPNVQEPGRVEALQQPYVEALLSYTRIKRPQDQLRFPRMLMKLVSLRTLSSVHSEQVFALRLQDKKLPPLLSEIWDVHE

Kallikrein-7 = Kallikrein-7 (Homo sapiens, UniProt P49862); test: Fluorescence Intensity-based biochemical primary high throughput dose response assay to identify activators of kallikrein-7 (K7) zymogen.
[10] = biological target: NAD-dependent protein deacylase sirtuin-5, mitochondrial (Homo sapiens, UniProt Q9NXA8); test: blockers of sirtuin-5 peptide desuccinylation – biochemical, fluorescence imaging, cherry-pick, set 6, dose response (AID 720597)
Sequence of NAD-dependent protein deacylase sirtuin-5, mitochondrial (Q9NXA8 whole entry): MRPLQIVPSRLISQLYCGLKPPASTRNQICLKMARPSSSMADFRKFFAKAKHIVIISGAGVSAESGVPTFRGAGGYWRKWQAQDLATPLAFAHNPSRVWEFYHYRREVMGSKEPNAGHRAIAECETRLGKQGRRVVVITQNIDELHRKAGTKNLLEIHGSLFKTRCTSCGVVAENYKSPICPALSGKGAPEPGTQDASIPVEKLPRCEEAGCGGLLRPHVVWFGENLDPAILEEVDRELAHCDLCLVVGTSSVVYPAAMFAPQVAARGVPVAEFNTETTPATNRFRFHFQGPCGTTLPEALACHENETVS

Sequence of Kallikrein-7 (P49862 whole entry): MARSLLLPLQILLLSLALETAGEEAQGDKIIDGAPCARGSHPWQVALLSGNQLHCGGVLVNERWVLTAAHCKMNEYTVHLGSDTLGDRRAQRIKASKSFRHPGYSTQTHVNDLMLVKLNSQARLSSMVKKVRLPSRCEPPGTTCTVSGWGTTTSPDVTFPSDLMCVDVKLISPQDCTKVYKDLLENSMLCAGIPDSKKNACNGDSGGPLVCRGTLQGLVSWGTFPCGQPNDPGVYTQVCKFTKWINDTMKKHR

Structure (SMILES): O=C(Nc1ccc2c(c1)CCC2)C1CCN(c2c3c(nc4ncnn24)CCC3)CC1
- AC50 [1]: 9.44 µM (active)
- AC50 [2]: 1.4 µM (active)
- AC50 [3]: 41.2 µM (active)
- AC50 [4]: 3.88 µM (active)
- AC50 [5]: 5.08 µM (active)
- AC50 [6]: > 70 µM (inactive)

Structure (SMILES): NC(=S)N/N=C/c1ccc(-c2ccc(Cl)c(Cl)c2)o1
- EC50 [7]: 0.983 µM (active)
- EC50 [8]: > 60 µM (not active)
- EC50 [9]: > 67.5 µM (inactive)
- EC50 (cells): > 67.5 µM (inactive)

Structure (SMILES): Cc1nn(-c2ccccn2)c2nc(-c3cccs3)cc(C(=O)N3CCOCC3)c12
- EC50 (Kallikrein-7): > 69.5 µM (inactive)

Structure (SMILES): CC(C)CC#Cc1ccc2c(c1)O[C@@H](CN(C)S(=O)(=O)c1cccc(F)c1)[C@H](C)CN([C@H](C)CO)S2(=O)=O
- AC50 [10]: 26.3 µM (active)
